# Experimental data reported in patent US20190247353A1, “ACNE STRAIN-SELECTIVE ANTIBACTERIAL AGENT” (MOMOTANI JUNTENKAN CO., LTD., priority 2016, published 2019).
# Read-outs that look alike come from different tables or passages of the source.
# Assays:
# Assay type in all cases: cell-based, Propionibacterium acnes
# HL053PA1 strain (RT4) = assay: MIC by broth microdilution method, HL053PA1 strain; settings: for MIC: Cutibacterium acnes, read-out: MIC against acne bacterium strain HL053PA1 strain (RT4)
# Description: (§1) An MIC is measured herein according to the broth microdilution method which is the standard method of Japanese Society of Chemotherapy.
# (§2) The antibacterial activity of a test substance was determined based on the minimum inhibitory concentration (MIC). An MIC was measured according to the broth microdilution method which is the standard method of Japanese Society of Chemotherapy.
# (§3) One-loopful of each acne bacterium strain listed in Table 1 was scraped off and inoculated into 5 mL of a GAM broth slant agar medium (pH 7.0, Nissui Pharmaceutical Co., Ltd.).
# (§4) The inoculated acne bacterium strain was precultured at 37° C. in a nitrogen atmosphere (anaerobic condition) for 48 hours. The precultured microbial cells were diluted in a modified GAM broth liquid medium (pH 6.0) to a concentration of 5.0×10^4 cfu/mL (viable cell count per OD660=1 is 2.0×10^9 cfu/mL), to prepare strain suspensions.
# (§5) Each fatty acid (Tokyo Chemical Industry Co., Ltd.) listed in Table 2 was dissolved in dimethylsulfoxide (DMSO) as a solvent such that the concentration became 10,000 μg/mL, and used as a test substance.
# (§6) Each of strain suspensions (5.0×10^4 cfu/mL) was aliquoted in a 96-well round bottom microplate, each of the test substance (fatty acid concentration 10,000 μg/mL) was added at a 1/10 volume to the aliquot and mixed to prepare measurement samples (fatty acid concentration: 1,000 μg/mL). Measurement samples in 2-fold dilution series were prepared using the strain suspension (fatty acid concentration from 0.48 to 1,000 μg/mL).
# (§7) […] The presence or absence of a precipitation of test microbial cells after the incubation was examined and the minimum concentration at which the precipitation of microbial cells […] was regarded as the MIC (μg/mL) of the test substance against the acne bacterium strain.
# HL110PA3 strain (RT6) = assay: MIC by broth microdilution method, HL110PA3 strain; settings: Cutibacterium acnes, read-out: MIC against acne bacterium strain HL110PA3 strain (RT6)
# Description: as §1, §2, §3, §4, §5, §6, §7
# HL005PA1 strain (RT4) = assay: MIC by broth microdilution method, HL005PA1 strain; settings: Cutibacterium acnes, PA1; Example 6, method as Example 1; read-out: MIC against acne bacterium strain HL005 PA1 strain (RT4)
# Description: as §2
# (§8) Each of strain suspensions (5.0×10^4 cfu/mL) was aliquoted in a 96-well round bottom microplate, each of the test substance (fatty acid concentration 10,000 μg/mL) was added at a 1/10 volume to the aliquot and mixed to prepare measurement samples (fatty acid concentration: 1,000 μg/mL). Measurement samples in 2-fold dilution series were prepared using the strain suspension (fatty acid concentration from 0.48 to 1,000 μg/mL). Using a sample containing only the solvent (DMSO) as a control, it was confirmed that the influence of the solvent on the growth of each strain could be neglected.
# (§9) The measurement samples were incubated under an anaerobic condition at 37° C. for 2 days. The presence or absence of a precipitation of test microbial cells after the incubation was examined and the minimum concentration at which the precipitation of microbial cells […] was regarded as the MIC (μg/mL) of the test substance against the acne bacterium strain.
# (§10) The MIC of each of the following test substances was measured substantially in the same manner as in Example 1 (Table 12) except that a suspension of test bacterium strains was prepared using the dominant strain in acne patients (HL005PA1 strain (HM-492^†, RT4 strain), […] (HM-524^†, RT4 strain), HL045PA1 strain (HM-516^†, RT4 strain), or HL043PA2 strain (HM-514^†, RT5 strain)), or the dominant strain in healthy subjects (HL110PA4 strain (HM-555^†, RT6 strain) instead of the dominant strains in acne patients (HL053PA1 strain (RT4 strain) and HL043PA1 strain (RT5 strain)) and the dominant strain in healthy subjects (HL110PA3 strain (RT6 strain) used in Examples 1 to 3.
# HL056PA1 strain (RT4) = assay: MIC by broth microdilution method, HL056PA1 strain; settings: Cutibacterium acnes, PA1; Example 6, method as Example 1; read-out: MIC against acne bacterium strain HL056 PA1 strain (RT4)
# Description: as §2, §8, §9, §10
# HL045PA1 strain (RT4) = assay: MIC by broth microdilution method, HL045PA1 strain; settings: Cutibacterium acnes, PA1; Example 6, method as Example 1; read-out: MIC against acne bacterium strain HL045 PA1 strain (RT4)
# Description: as §2, §8, §9, §10
# HL043PA2 strain (RT5) = assay: MIC by broth microdilution method, HL043PA2 strain; settings: Cutibacterium acnes; Example 6, method as Example 1; read-out: MIC against acne bacterium strain HL043 PA2 strain (RT5)
# Description: as §2, §8, §9, §10
# HL110PA4 strain (RT6) = assay: MIC by broth microdilution method, HL110PA4 strain; settings: Cutibacterium acnes; Example 6, method as Example 1; read-out: MIC against acne bacterium strain HL110 PA4 strain (RT6)
# Description: as §2, §8, §9, §10
# [1] = test system: HL005PA1, HL056PA1, HL045PA1 (RT4) and HL043PA2 (RT5) strains versus HL110PA4 strain (RT6); assay: Strain-selective antibacterial activity against different acne bacterium strains (Example 6); settings: Example 6 strains
# Description: Herein, “acne strain-selective antibacterial activity” or “strain-selective antibacterial activity” means an index indicating better inhibition of growth of a dominant strain in acne patients compared to that of a dominant strain in healthy subjects. It is expressed by the average value of the values (MICRT6/MICRT4, and MICRT6/MICRTS) obtained by dividing the minimum inhibitory concentration (MIC) of an object substance with respect to the dominant strain in healthy subjects (RT6 strain) (MICRT6) respectively by the MIC of the object substance with respect to the dominant strain in acne patients (RT4 strain) (MICRT4), and by the MIC of the object substance with respect to the dominant strain in acne patients (RT5 strain) (MICRT5).
# The strain-selective antibacterial activity of each test substance (Table 2, right-most column) was evaluated based on the following rating criteria (Table 3). When the strain-selective antibacterial activity is indicated by a numerical range, the rating was based on the minimum value thereof.
# as §10
# [2] = 48 h, pH 6.0 modified GAM broth, anaerobic, 37° C., 2 days (Example 1)
# [3] = 72 h, pH 5.0, estimated from the growth on day 3
# [4] = pH 5.0, estimated from the growth on day 3
# [5] = 72 h, pH 5.5, estimated from the growth on day 3
# [6] = 96 h, pH 5.0, estimated from the growth on day 4
smiles,measurement,setting,value
"CCCCCCCCCCCCCCCCC(=O)O [Heptadecanoic acid (C17:0), Heptadecanoic acid]",MIC,HL053PA1 strain (RT4); [2],7.81 µg/mL
same,MIC,HL053PA1 strain (RT4); [3],> 1000 µg/mL
same,MIC,HL053PA1 strain (RT4); pH 5.5,15.6 µg/mL
same,MIC,HL053PA1 strain (RT4); pH 6.5,31.3 µg/mL
same,MIC,HL053PA1 strain (RT4); pH 7.0,62.5 µg/mL
same,MIC against acne bacterium strain HL053PA1 strain (RT4),HL053PA1 strain (RT4); [4],>1000 µg/mL
same,MIC,HL110PA3 strain (RT6); [2],> 1000 µg/mL
same,MIC,HL110PA3 strain (RT6); [5],> 1000 µg/mL
same,MIC,HL110PA3 strain (RT6); [6],> 1000 µg/mL
same,MIC,HL110PA3 strain (RT6); pH 6.5,> 1000 µg/mL
same,MIC,HL110PA3 strain (RT6); pH 7.0,1000 µg/mL
same,MIC,HL005PA1 strain (RT4),62.5 µg/mL
same,MIC,HL056PA1 strain (RT4),250 µg/mL
same,MIC,HL045PA1 strain (RT4),125 µg/mL
same,MIC,HL043PA2 strain (RT5),62.5 µg/mL
same,MIC,HL110PA4 strain (RT6),> 1000 µg/mL
same,Strain-selective antibacterial activity,[1],>11
"CCCCCCCCCCCCCC(=O)O [Myristic acid (C14:0), Myristic acid]",MIC,HL053PA1 strain (RT4); [2],15.6 µg/mL
same,MIC,HL053PA1 strain (RT4); [3],15.6 µg/mL
same,MIC,HL053PA1 strain (RT4); pH 5.5,15.6 µg/mL
same,MIC,HL053PA1 strain (RT4); pH 6.5,125 µg/mL
same,MIC,HL053PA1 strain (RT4); pH 7.0,250 µg/mL
same,MIC,HL110PA3 strain (RT6); [2],250 µg/mL
same,MIC,HL110PA3 strain (RT6); [5],> 1000 µg/mL
same,MIC,HL110PA3 strain (RT6); [6],> 1000 µg/mL
same,MIC,HL110PA3 strain (RT6); pH 6.5,250 µg/mL
same,MIC,HL110PA3 strain (RT6); pH 7.0,500 µg/mL
same,MIC,HL005PA1 strain (RT4),31.3 µg/mL
same,MIC,HL056PA1 strain (RT4),125 µg/mL
same,MIC,HL045PA1 strain (RT4),31.3 µg/mL
same,MIC,HL043PA2 strain (RT5),15.6 µg/mL
same,MIC,HL110PA4 strain (RT6),250 µg/mL
same,Strain-selective antibacterial activity,[1],8.5
"CCCCCCCCCCCCCCCC(=O)O [Palmitic acid (C16:0), Palmitic acid]",MIC,HL053PA1 strain (RT4); [2],7.81 µg/mL
same,MIC,HL053PA1 strain (RT4); [3],> 1000 µg/mL
same,MIC,HL053PA1 strain (RT4); pH 5.5,62.5 µg/mL
same,MIC,HL053PA1 strain (RT4); pH 6.5,125 µg/mL
same,MIC,HL053PA1 strain (RT4); pH 7.0,62.5 µg/mL
same,MIC against acne bacterium strain HL053PA1 strain (RT4),HL053PA1 strain (RT4); [4],>1000 µg/mL
same,MIC,HL110PA3 strain (RT6); [2],> 1000 µg/mL
same,MIC,HL110PA3 strain (RT6); [5],> 1000 µg/mL
same,MIC,HL110PA3 strain (RT6); [6],> 1000 µg/mL
same,MIC,HL110PA3 strain (RT6); pH 6.5,> 1000 µg/mL
same,MIC,HL110PA3 strain (RT6); pH 7.0,1000 µg/mL
same,MIC,HL005PA1 strain (RT4),62.5 µg/mL
same,MIC,HL056PA1 strain (RT4),500 µg/mL
same,MIC,HL045PA1 strain (RT4),250 µg/mL
same,MIC,HL043PA2 strain (RT5),62.5 µg/mL
same,MIC,HL110PA4 strain (RT6),> 1000 µg/mL
same,Strain-selective antibacterial activity,[1],>9.5
"CCCCCCCCCCCCCCC(=O)O [Pentadecanoic acid (C15:0), Pentadecanoic acid]",MIC,HL053PA1 strain (RT4); [2],1.95 µg/mL
same,MIC,HL053PA1 strain (RT4); [3],7.81 µg/mL
same,MIC,HL053PA1 strain (RT4); pH 5.5,3.9 µg/mL
same,MIC,HL053PA1 strain (RT4); pH 6.5,3.9 µg/mL
same,MIC,HL053PA1 strain (RT4); pH 7.0,3.9 µg/mL
same,MIC,HL110PA3 strain (RT6); [2],250 µg/mL
same,MIC,HL110PA3 strain (RT6); [5],> 1000 µg/mL
same,MIC,HL110PA3 strain (RT6); [6],> 1000 µg/mL
same,MIC,HL110PA3 strain (RT6); pH 6.5,250 µg/mL
same,MIC,HL110PA3 strain (RT6); pH 7.0,1000 µg/mL
same,MIC,HL005PA1 strain (RT4),3.9 µg/mL
same,MIC,HL056PA1 strain (RT4),3.9 µg/mL
same,MIC,HL045PA1 strain (RT4),3.9 µg/mL
same,MIC,HL043PA2 strain (RT5),3.9 µg/mL
same,MIC,HL110PA4 strain (RT6),250 µg/mL
same,Strain-selective antibacterial activity,[1],64
